Consider 74 compounds from article PMC7822874, “Chemoprotective antimalarials identified through quantitative high-throughput screening of Plasmodium blood and liver stage parasites” (Scientific Reports, 2021).

In general, viability refers to a read-out of living cells in per cent, often relative to untreated cells.

The data set is described as follows: in vitro. Conditions: human, hepg2-a16-cd81egfp cells.

On to `CN(CC(=O)Nc1cccc(F)c1)C(=O)c1ccc(-c2ccc(Cl)cc2)o1` [MLS001078811], for which, where the note is “% viability”, the viability at 3 µM was found to be 105%.

Turning to `O=C(CSc1nc(Nc2ccccc2)nc(N2CCOCC2)n1)Nc1cc(Cl)ccc1O` [MLS001035450], where the note is “% viability”, the viability at 3 µM worked out at 85.3%. For the compound `O=C(Nc1ccncc1)Nc1cccc(Cl)c1Cl` [MLS001224778], the viability at 3 µM (% viability) came out at 96.5%.

`CCCCCCCc1c(C)[nH]c(N2CCOCC2)nc1=O` [MLS000531187]: under “% viability”, the viability at 3 µM is 90.5%. On the same count and under the same terms, the same measure for `N#Cc1ccc(NC(=O)Nc2ccc(Cl)cc2)cc1` [MLS000104525]: 77.8%; for `CCN(CC)C1=NC(=[N+](CC)CC)c2ccccc21.[O-][Cl+3]([O-])([O-])O` [MLS000565348]: 83.4%. For `COc1cc(NS(C)(=O)=O)ccc1Nc1c2ccccc2nc2ccccc12` [MLS002153376], the viability at 3 µM (% viability) is 84.3%. Same read-out and setting: for `CCc1ccccc1OC[C@@H](O)CN[C@H]1CCCc2ccccc21` [MLS002172481] the value was 97.6%; for `CN(C)c1nc(-c2ccccn2)nnc1-c1ccccc1` [MLS000541553], 86.2%. On the same count and under the same terms, the same measure for `CC(C)c1ccc(CC(=O)N2CCCc3ncc(C(=O)Nc4cccnc4)cc32)cc1` [NCGC00420003]: 45.1%. On the same count and under the same terms, for `COc1ccc2cc3cc(C(=O)NCC4CCCO4)oc3nc2c1` (centres unmarked) [MLS000091914] the value was 106%. Turning to `CCOc1ccccc1NC(=O)Cn1c(-c2ccc(Cl)cc2)noc1=O` [MLS000529487], the viability at 3 µM (% viability) was 86.9%.

With `CCc1nc(N)nc(N)c1-c1ccc(Cl)cc1` [NCGC00023188], for the setting “% viability”, the viability at 3 µM came to 95.9%.

In the case of `COc1ccccc1CNC(=O)CCn1c(=O)[nH]c2ccsc2c1=O` [MLS000044764], the viability at 3 µM (% viability) is 109%.

Regarding `CN(C)CCCn1cnc2c(c1=N)C(c1ccccc1)c1ccc3ccccc3c1O2` (centres unmarked) [MLS001216375], the viability at 3 µM (% viability) was determined as 106%. Turning to `O=C(c1ccc([N+](=O)[O-])o1)N1CCN(c2nc3c(Cl)cccc3s2)CC1` [MLS001234208], the viability at 3 µM (% viability) turned out to be 90.1%. As to `O=[S+]([O-])(c1ccc(Cl)cc1)N1CCN(C(=S)Nc2ccc(F)c(Cl)c2)CC1` [NCGC00345140], the viability at 3 µM (% viability) stood at 85.6%. Turning to `COc1cccc2sc(N3CCN(C(=O)c4ccc([N+](=O)[O-])o4)CC3)nc12` [MLS001234267], the viability at 3 µM (% viability) worked out at 93.6%. Same read-out and setting: the same measure for `CCc1c(C)c(C#N)c2nc3ccccc3n2c1NCC1CCCO1` (centres unmarked) [MLS000556827]: 99.5%; for `COc1ccc(C2Sc3ccccc3N=C3C2=C(O)c2ccccc23)c(OC)c1OC` (centres unmarked) [NCGC00108825]: 43.7%; for `Cc1ccc(CNCc2cc3c(C(C)(C)C)nn(-c4ccccc4)c3[nH]c2=O)cc1` [MLS000067257]: 106%.

Take `C=CCNC(=S)N1CCN(c2ccc([N+](=O)[O-])cc2)CC1` [MLS000581348]: the viability at 3 µM (% viability) came to 99.6%.

Take `Oc1ccc(Br)cc1CN1CCN(c2ccccc2)CC1` [MLS000106609]: the viability at 3 µM was 99.8%. Regarding `Cc1cc(O)c(-c2cc(C(=O)Nc3ccc(S(=O)(=O)N4CCOCC4)cc3)[nH]n2)cc1C` [MLS000042703], the viability at 3 µM (% viability) turned out to be 93.1%. Consider `C[n+]1c2ccccc2nc2ccc(NCCO)cc21.[O-][Cl+3]([O-])([O-])[O-]` [MLS001164888], for which the viability at 3 µM came out at 97.2%. `OC(c1ccc(Cl)cc1)C(CN1CCOCC1)c1ccccc1` (centres unmarked) [MLS001173582]: the viability at 3 µM (% viability) came to 99.6%. On the same count and under the same terms, for `CCCCN(CC)CCNC(=O)c1cc2c(-c3ccc(Cl)cc3)nn(C)c2s1` [MLS001199341] the value was 90.6%. As for `CC(C)N1CC=C(c2c[nH]c3ccccc23)CC1` [MLS000093714], the viability at 3 µM (% viability) is 93.1%. Same read-out and setting: the same measure for `Cc1ccc(-c2cc(C(=O)Nc3ccc(S(=O)(=O)N4CC(C)OC(C)C4)cc3)[nH]n2)c(O)c1` (centres unmarked) [MLS000779230]: 89.2%; for `Nc1nonc1-n1nnc(C(=O)N/N=C/c2ccc(Cl)cc2)c1-c1ccc2c(c1)OCO2` [MLS001142698]: 104%.

As for `Cc1ccc(-c2cc(C(F)(F)F)n3ncc(C(=O)N4CCCCC4c4cccnc4)c3n2)cc1` (centres unmarked) [MLS000729132], the viability at 3 µM (% viability) was 89.9%.

With `c1ccc2sc(Sc3ncnc4sccc34)nc2c1` [MLS000334432], the viability at 3 µM (% viability) amounted to 96.9%.

`N=c1ccn(CC(=O)c2ccc(-c3ccccc3)cc2)cc1` [MLS000698051]: where the note is “% viability”, the viability at 3 µM was 53.4%.

Turning to `Cc1ccc(S(=O)(=O)N2CCN(/C(S)=N/Cc3ccc4c(c3)OCO4)CC2)cc1` [MLS001002637], the viability at 3 µM (% viability) worked out at 97.3%. On to `CCOC(=O)c1sc2nc3c(SCCC#N)cc(C(=O)c4cc(F)ccc4O)cn3c(=O)c2c1C` [MLS000393119], for which, for the setting “% viability”, the viability at 3 µM came to 91.3%. Same read-out and setting: for `CNc1ccc2oc(C[C@@H]3OC4(CC[C@@H]3C)O[C@H]([C@@H](C)C(=O)c3ccc[nH]3)[C@H](C)C[C@H]4C)nc2c1C(=O)O` (some centres unmarked) [NCGC00161647] the value was 12.5%; for `COc1cccc(NC(=O)CN(C)C(=O)c2oc3c(ccc4ccccc43)c2C)c1` [MLS001142056], 101%; for `CCCCN(C(=O)c1cccc(S(=O)(=O)N(C)c2ccc(C)cc2)c1)c1c(N)n(CCCC)c(=O)[nH]c1=O` [MLS001128188], 91.7%.

As for `Clc1ccc(NNc2ccnc3cc(Cl)ccc23)cc1` [MLS000537447], the viability at 3 µM (% viability) was determined as 90.3%. The same measure, in the same setting: the same measure for `OCCCNc1cc(-c2ccnc(Nc3cccc(Cl)c3)n2)ccn1` [NCGC00346940]: 8.46%.

As to `O=C1C=C(c2cccc(CO)c2)C[C@@H](c2ccc(Cl)cc2)C1` [MLS002302575], where the note is “% viability”, the viability at 3 µM was determined as 102%. Same read-out and setting: for `CC(C)(C)CC(C)(C)c1ccc(O)c(Cc2ccc(Cl)cc2Cl)c1` [NCGC00095016] the value was 93.1%; for `O=C1N(c2ccccc2C(F)(F)F)OC1(Cc1ccccc1)c1ccccc1` (centres unmarked) [MLS002206595], 85%. Still for that read-out and setting: the same measure for `CN1CCN(c2ccc(NC(=O)c3ccc(-c4cccc([N+](=O)[O-])c4)o3)cc2)CC1` [MLS000663772]: 107%. In the case of `O=c1c2ccccc2nc(N/N=C/c2c(O)ccc3ccccc23)n1O` [MLS000551780], the viability at 3 µM (% viability) stood at 34.1%. Still for that read-out and setting: the same measure for `O=C(/C(=C/c1ccc(Cl)cc1)c1nc2ccccc2[nH]1)c1cccs1` [MLS000565128]: 79.2%. Consider `O[C@H]1[C@H]2c3cc4c(cc3CN3CCC(=C[C@@H]1O)[C@@H]23)OCO4` [NCGC00262562], for which, for the setting “% viability”, the viability at 3 µM came out at 83.5%. The same measure, in the same setting: for `CCOc1ccc(C(=O)Nc2ccc(-c3nc4ccccc4[nH]3)cc2)cc1[N+](=O)[O-]` [MLS000577721] the value was 101%; for `CC[C@]1(c2ccccc2OC)ON(c2ccccc2C(F)(F)F)C1=O` [MLS002206607], 102%.

With `Cc1cc(N2CCC(C)CC2)nc(-n2nc(C)cc2C)n1` [MLS000109839], for the setting “% viability”, the viability at 3 µM came to 98.6%.

Turning to `CCOc1ccc(Nc2cc(=O)oc3ccccc23)cc1` [MLS000519261], the viability at 3 µM (% viability) is 103%. Still for that read-out and setting: the same measure for `CNc1ccc2oc(C[C@H]3O[C@@]4(CC[C@H]3C)O[C@H]([C@H](C)C(=O)c3ccc[nH]3)[C@H](C)C[C@H]4C)nc2c1C(=O)O` [MLS001056783]: 19.2%; for `CC1CC(C)CN(C(=O)c2ccc3ccccc3c2)C1` (centres unmarked) [MLS001161774]: 90.9%. For `COc1ccccc1Nc1cnc2ccc(-c3ccc(OC)c(OC)c3)nn12` [NCGC00412573], the viability at 3 µM (% viability) is 82.7%. On to `Cc1cc(C)n(-c2nc(NC(C)C)nc(NC(C)C)n2)n1` [MLS000068521], for which, where the note is “% viability”, the viability at 3 µM turned out to be 105%. The same measure, in the same setting: the same measure for `O=[N+]([O-])c1ccc(N2CCN(/C(S)=N/C3CCCCC3)CC2)cc1` [MLS000574247]: 99.2%; for `CCN(CC)CCCN(c1ccccc1)C1Cc2ccccc2C1` [NCGC00167576]: 99.6%. Regarding `COc1ccc(CCC(=O)N2Cc3ccccc3OC3(CCN(C)CC3)C2)cc1` [NCGC00456460], the viability at 3 µM (% viability) was determined as 106%. Same read-out and setting: the same measure for `Cc1ccc(O)c(-c2cc(C(=O)Nc3ccc(S(=O)(=O)N4CC(C)OC(C)C4)cc3)n[nH]2)c1` (centres unmarked) [MLS000042695]: 87.1%; for `c1ccc(Nc2cc3c(cn2)CN(Cc2ccc4[nH]ccc4c2)CCN3)cc1` [NCGC00411105]: 49.4%; for `CC(C)(C)OC(=O)N1CCC(CC2CC(c3ccccc3)=NO2)(C(=O)NCc2ccccc2)CC1` (centres unmarked) [MLS002174287]: 99.3%.

In the case of `C=C(C)CSc1nc2sc3c(c2c(=O)n1-c1ccccc1)CCN(C)C3` [MLS001173616], for the setting “% viability”, the viability at 3 µM was found to be 98.7%.

With `CC(=O)Nc1ccc(Nc2cc(C)nc(Nc3ccc(NC(C)=O)cc3)n2)cc1` [MLS001359830], the viability at 3 µM (% viability) stood at 93.2%. On to `Cc1ccc(S(=O)(=O)n2nccc2-c2c(-c3ccc(Cl)cc3)noc2C)cc1` [MLS001111122], for which the viability at 3 µM (% viability) was determined as 101%. On the same count and under the same terms, the same measure for `CCN1CCN(Cc2ccc(NC(=O)c3cc(NC(=O)c4cncc(-c5ccc(C#N)cc5)c4)cc(OC)c3)cc2C(F)(F)F)CC1` [MLS000911575]: 99.9%. As for `CC(C)Nc1ccc(Nc2ccnc3cc4ccccc4cc23)cc1` [MLS000766754], the viability at 3 µM (% viability) was 83.9%. On the same count and under the same terms, the same measure for `Cc1nnsc1[S+]([O-])c1ccc(Cl)cc1` (centres unmarked) [MLS001166465]: 96.9%. Consider `COc1cc(NC(=O)c2cc([N+](=O)[O-])ccc2NC(=O)CNC2CCCCC2)cc(OC)c1` [MLS000950380], for which, where the note is “% viability”, the viability at 3 µM worked out at 109%. Still for that read-out and setting: for `CCOc1ccc(CCNC(=O)Nc2ccccc2)cc1OCC` [MLS001197603] the value was 99.4%; for `CC1=C[C@@H](CNCc2cccnc2)[C@H](C(C)C)C[C@H]1Cc1nnc(-c2ccc([N+](=O)[O-])cc2)o1` [NCGC00394797], 91.7%.

With `CCN1CCN(Cc2ccc(NC(=O)c3ccc(C)c(NC(=O)c4cc(-c5ccc(Br)cc5)[nH]n4)c3)cc2C(F)(F)F)CC1` [MLS000911560], the viability at 3 µM (% viability) came to 99%.

For `CC1(C)Cc2ccccc2C2=NNC(=O)C2=N1` [MLS000709658], the viability at 3 µM (% viability) amounted to 94.5%. Still for that read-out and setting: for `O=C(O)c1cc(-c2ccccc2)cc(-c2ccccc2)[n+]1Cc1ccccc1` [MLS001240915] the value was 98.5%; for `Cc1ccc(C)c2sc(N3CCN(C(=O)c4ccc([N+](=O)[O-])o4)CC3)nc12` [MLS001234268], 94.7%.
